Experimental data as given in patent US9206226B2, “Non-ionic acid-labile surfactants and methods of use” (Protea Biosciences, Inc., priority 2011, dated 2015).

Target: bovine serum albumin (BSA) (Bos taurus, UniProt P02769)
Assay: MALDI-TOF mass spectra of BSA with surfactant, intact and acid-degraded
Conditions: for BSA MALDI signal after surfactant degradation: degraded about 30 minutes in 1% TFA at pH 2.5
Description: The various embodiments of non-ionic acid-labile surfactants and methods of use described herein may be better understood when read in conjunction with the following representative examples. The following examples are included for purposes of illustration and not limitation. MALDI-TOF spectra were acquired using an ABI 4800 mass spectrometer in the linear mode.
Referring to FIGS. 2A-C, 0.1% N-[2,2-Bis(pentyloxy)propan-1-aminocarbonyl]-β-maltosylamine was mixed with bovine serum albumin (BSA) in water. The samples were spotted onto a MALDI pre-spotted target with CHCA MALDI matrix using C8 reversed phase tips. FIG. 2A includes a mass spectra of 20 pmol BSA in water. BSA was detected at m/z 22344, m/z 33480, and m/z 66854. FIG. 2B includes a mass spectra of 20 pmol BSA dissolved in 0.1% N-[2,2-Bis(pentyloxy)propan-1-aminocarbonyl]-β-maltosylamine. […] FIG. 2C includes a mass spectra of 20 pmol BSA in 0.1% N-[2,2-Bis(pentyloxy)propan-1-aminocarbonyl]-β-maltosylamine after being degraded for about thirty (30) minutes in 1% TFA at pH 2.5. BSA was detected at m/z 22212, m/z 33309, and m/z 66460.
Referring to FIGS. 3A-C, 1% N-[2,2-Bis(pentyloxy)propan-1-aminocarbonyl]-β-maltosylamine was mixed with bovine serum albumin (BSA) in water. The samples were spotted onto a MALDI pre-spotted target with CHCA MALDI matrix using C8 reversed phase tips. FIG. 3A includes a mass spectra of 20 pmol BSA in water. BSA was detected at m/z 22344, m/z 33480, and m/z 66854. FIG. 3B includes a mass spectra of 20 pmol BSA dissolved in 1% N-[2,2-Bis(pentyloxy)propan-1-aminocarbonyl]-β-maltosylamine. […] FIG. 3C includes a mass spectra of 20 pmol BSA in 1% N-[2,2-Bis(pentyloxy)propan-1-aminocarbonyl]-β-maltosylamine after being degraded for about thirty (30) minutes in 1% TFA at pH 2.5. BSA was detected at m/z 22260, m/z 33377, and m/z 66527.
Referring to FIGS. 5A-C, 0.1% N-[2,2-Bis(hexyloxy)propan-1-aminocarbonyl]-β-maltosylamine was mixed with BSA. The samples were spotted onto a MALDI pre-spotted target with CHCA MALDI matrix using C8 reversed phase tips. FIG. 5A includes a mass spectra of 20 pmol BSA in water. BSA was detected at m/z 22344, m/z 33480, and m/z 66854. FIG. 5B includes a mass spectra of 20 pmol BSA dissolved in 0.1% N-[2,2-Bis(hexyloxy)propan-1-aminocarbonyl]-β-maltosylamine. […] FIG. 5C includes a mass spectra of 20 pmol BSA in 0.1% N-[2,2-Bis(phexyloxy)propan-1-aminocarbonyl]-β-maltosylamine after being degraded for about thirty (30) minutes in 1% TFA at pH 2.5. BSA was detected at m/z 22197, m/z 33284, and m/z 66405.

[1] = 20 pmol BSA dissolved in 0.1% surfactant

bovine serum albumin (BSA), sequence (P02769 25-607): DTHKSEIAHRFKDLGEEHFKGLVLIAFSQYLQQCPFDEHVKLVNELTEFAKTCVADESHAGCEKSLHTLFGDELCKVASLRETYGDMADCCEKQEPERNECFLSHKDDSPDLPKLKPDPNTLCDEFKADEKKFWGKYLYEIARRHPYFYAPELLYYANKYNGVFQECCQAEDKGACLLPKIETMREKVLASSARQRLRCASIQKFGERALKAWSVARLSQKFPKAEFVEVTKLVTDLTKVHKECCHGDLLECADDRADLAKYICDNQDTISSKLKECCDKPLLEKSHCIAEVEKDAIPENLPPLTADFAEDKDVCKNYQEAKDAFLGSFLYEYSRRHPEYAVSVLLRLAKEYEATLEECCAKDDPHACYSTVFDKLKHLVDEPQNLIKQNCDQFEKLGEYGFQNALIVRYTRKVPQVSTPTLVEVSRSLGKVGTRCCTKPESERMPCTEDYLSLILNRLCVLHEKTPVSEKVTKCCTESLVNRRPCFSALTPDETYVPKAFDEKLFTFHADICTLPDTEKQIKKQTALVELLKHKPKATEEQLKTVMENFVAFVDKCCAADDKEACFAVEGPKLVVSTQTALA

| BSA MALDI signal, intact surfactant [1] | BSA MALDI signal, intact surfactant (20 pmol BSA dissolved in 1% surfactant) | SMILES | BSA MALDI signal after surfactant degradation (0.1% surfactant) | BSA MALDI signal after surfactant degradation (1% surfactant) |
| --- | --- | --- | --- | --- |
| no signal from the BSA was detected |  | CCCCCCOC(C)(CNC(=O)NC1OC(CO)C(OC2OC(CO)C(O)C(O)C2O)C(O)C1O)OCCCCCC (stereo not drawn) [N-[2,2-Bis(hexyloxy)propan-1-aminocarbonyl]-β-maltosylamine] | a signal from the BSA was detected when the surfactant was degraded |  |
| no signal from the BSA was detected | no signal from the BSA was detected | CCCCCOC(C)(CNC(=O)NC1OC(CO)C(OC2OC(CO)C(O)C(O)C2O)C(O)C1O)OCCCCC (stereo not drawn) [N-[2,2-Bis(pentyloxy)propan-1-aminocarbonyl]-β-maltosylamine] | a signal from the BSA was detected when the surfactant was degraded | a signal from the BSA was detected when the surfactant was degraded |
